Results published in patent US20120115872A1, “COMBINATION OF A SODIUM-PROTON EXCHANGER INHIBITOR AND OF A DIHYDRO-1,3,5-TRIAZINE AMINE DERIVATIVE” (Merck Patent GMBH, priority 2009, published 2012).

Columns and labels:
Format in all cases: cell-based
[1] = tested on: human dermal microvascular endothelial cell line HMEC-1; assay: Mitochondrial membrane potential (TMRM probe, confocal microscopy) in HMEC-1 cells under ischaemia/reperfusion
Description: The immortalized human dermal microvascular endothelial cell line HMEC-1 was used. […] They were analysed by confocal microscopy before the treatment, after 60 minutes of ischaemia, after 90 minutes of reperfusion and after 120 minutes of reperfusion.

[2] = tested on: mitochondrial transient permeability pore (TPP); assay: Opening of the mitochondrial transient permeability pore (TPP); details: during ischaemia and/or reperfusion events
[3] = tested on: complex I of the endothelial cell respiratory chain; assay: Production of ROS by complex I of the endothelial cell respiratory chain; details: endothelial cells; by inhibiting reverse electron flow

## CC1N=C(N)NC(N(C)C)=N1 (stereo not shown) [E 008]
[1]; HMEC-1, 30 min pre-incubation, 60 min ischaemia, reperfusion 90 and 120 min, TMRM 30 nM
  mitochondrial membrane potential after reperfusion: protected against the damage induced by the reperfusion
[1]; during ischaemia and/or reperfusion events
  loss of potential of the mitochondrial membrane: prevent the loss of potential of the mitochondrial membrane
[2]
  opening of the mitochondrial transient permeability pore (TPP): reduce the opening of the mitochondrial transient permeability pore (TPP)
[3]
  production of ROS by complex I of the respiratory chain: reduce the production of ROS
